The text below walks through data of patent US20220226329A1, “METHOD TO INDUCE HEMATOPOIETIC CHIMERISM” (The General Hospital Corporation, priority 2019, published 2022).

Data set [1] has as its system Bcl-2, Bcl-xL, Bcl-w, Mcl-1. The note with it: literature statements; cited from earlier work.
Data set [2] has as its system hematopoietic stem cells (HSCs). Kind of data set: Drug-only study: HSC deletion in bone marrow (flow cytometry) and total CFU assay. It counts as in vivo, cynomolgus macaques. The note with it: S63845 5 mg/kg x 5 alone. An excerpt:
In certain embodiments, the deletion of CD34^+ cells of the bone marrow can be determined using flow cytometry and comparing the amount of CD34^+ cells of the bone marrow to pre-treatment levels. The reduction in total colony forming units can be measured by a CFU assay and comparing the CFUs to pre-treatment levels.
(In general: A flow cytometer gives signals particle by particle.)

The test system of data set [3] is BAX (the BCL-2-associated X protein). Kind of data set: Intrinsic apoptosis: expression of BAX and other apoptotic markers in peripheral lymphocytes (flow cytometry, CyTOF). It counts as in vivo, Cynomolgus monkeys. The note with it: 10 mg/kg x 11 (day -4 to +6), TBI 1.5 Gy regimen, n=3. How it is done:
To examine intrinsic apoptosis induced by ABT-199, expression of BAX (the BCL-2-associated X protein), which is pro-apoptotic protein that plays an important role in the mitochondria-dependent apoptotic pathway was assessed.
Flow cytometric and CyTOF analyses: Peripheral blood mononuclear cells (PBMCs) were labeled with a combination of the following mAbs: CD3 (SP34-2), CD4 (L200), CD8 (SK1), CD21 (B-ly4), CD27 (M-T271), CD28 (CD28.2), CD95 (DX2), and IgM (G20-127) (BD Pharmingen, San Jose, Calif.), CD20 (2H7) (Biolegend, Inc., San Diego, Calif.) and FOXP3 (236A/E7) (eBioscience, Inc., San Diego, Calif.). The fluorescence of the stained samples was analyzed using FACSverse (BD Biosciences, San Jose, Calif.) and Accuri flow cytometers (BD PharMingen), and FlowJo software (Tree Star, Inc., Ashland, Oreg.). A CyTOF panel for cynomolgus monkeys was designed. The CyTOF panel consisted of antibodies against various NHP leukocyte markers including CD3, CD4, CD8, Foxp3, CD127, CTLA4, Ki-67, CD95, CD20, CD21, CD27, CD38, CD123, CD31, CD11c, CD25, HLA-DR, CD45RA, CD159 (NKG2a), Granzyme B, Caspase 3/7/9, Bax and Cytochrom C.

The nature of data set [4]: Blood counts (CBC: white blood cells, neutrophils, platelets, HCT) after conditioning and transplantation. Type of data set: in vivo, Cynomolgus monkeys. How it is done:
Combined kidney and bone marrow transplantation (CKBMT): All recipients were conditioned with total body irradiation (TBI) (1.5 Gy on day −5, relative to the day of CKBMT), local thymic irradiation (TI) (7 Gy on day −1) and equine-derived anti-thymocyte globulin (hATG) (Atgam; Pharmacia and Upjohn, Kalamazoo, Mich.; 50 mg/kg/day i.v. on days −2, −1 and 0). Following DBMT, the recipients were also treated with anti-CD154 mAb (5c8; 20 mg/kg i.v. on days 0 and 2, 7, and 12 post-DBMT). Cyclosporine A (CyA, Novartis, Basel, Switzerland) was administered intramuscular (IM) on days 0-27 post DBMT, after which no immunosuppression was administered (FIG. 6).
(§1) Statistical analyses: Statistical analysis was performed with GraphPad PRISM 7.01 (GraphPad Software, Inc, San Diego, Calif.). We used two way ANOVA to compare chimerism, CBC, and T cell subsets. Mantel-Cox log-rank test was used to analyze survival of different groups and. P values lower than 0.05 have been considered statistically significant.

The test system of data set [5] is Cynomolgus monkeys. Description: Hematopoietic chimerism after combined kidney and bone marrow transplantation (CKBMT), flow cytometry of peripheral blood. The note with it: recipients with chimerism/total. Type of data set: in vivo. How it is done:
To evaluate whether Bcl-2 inhibitor (ABT-199) can promote engraftment of hematopoietic stem cells with reduced myelosuppressive therapy, monkeys were treated with various modified regimens with ABT-199 and compared with standard regimen without ABT-199. The basic conditioning regimen consisted of low dose total body irradiation (TBI), thymic irradiation (TI, 7 Gy) and peri-transplant ATG administration. After combined kidney and bone marrow transplantation, the recipients were treated with anti-CD154 mAb for 2 weeks and CyA for 4 weeks, after which no immunosuppression was given (FIG. 1). In Groups C-E, 10 mg/kg of ABT-199 was administered for 11 days (day −4 to day 6). Animals were divided into five groups according to the treatments (Table 1).
(§2) Animals and pair selections: Cynomolgus monkeys, including donor animals, weighing 4-8 kg were used for this study (Charles River Primates, Wilmington, Mass.). Donors and recipients were paired on the basis of ABO blood type compatibility and major histocompatibility complex (MHC) mismatching. MHC characterization was performed as previously described (O'Connor, S. L., et al. 2007, Immunogenetics 59, 449-462.; Pendley, C. J., et al. 2008, Immunogenetics 60, 339-351.). All surgical procedures and postoperative care of animals were performed in accordance with National Institute of Health guidelines for the care and use of primates and were approved by the Massachusetts General Hospital Institutional Animal Care and Use Committee (IACUC).
Following DBMT, the recipients were also treated with anti-CD154 mAb (5c8; 20 mg/kg i.v. on days 0 and 2, 7, and 12 post-DBMT). Cyclosporine A (CyA, Novartis, Basel, Switzerland) was administered intramuscular (IM) on days 0-27 post DBMT, after which no immunosuppression was administered (FIG. 6).
Bone marrow transplantation: Donor bone marrow cells (DBMC) were obtained by multiple aspirations from the iliac crests, humerus head, and vertebral bones under general anesthesia. If the donor animal was sacrificed, DBMC were harvested from the vertebral bones after euthanasia. DBMC (1.0-3.0×10^8 mononuclear cells/kg) were infused intravenously.
Detection of hematopoietic chimerism: A monkey was selected that was either BB7.6 (HLA-B7B40) positive or a H38 (HLA-BW6) positive monkey as a donor and a monkey negative to these antibodies was selected as a recipient. In all experiments, the percentage of cells that stained with each mAb was determined from one color fluorescence histogram and compared with those obtained from donor and pretreatment frozen recipient cells, which were used as positive and negative controls. The percentage of cells considered positive was determined with a cutoff chosen as the fluorescence level at the beginning of the positive peak for the positive control stain and by subtracting the percentage of cells stained with an isotype control. By using forward and 90° light scatter (FSC and SSC, respectively) dot plots, lymphocyte (FSC- and SSC-low), granulocyte (SSC-high), and monocyte (FSC-high but SSC-low) populations were gated, and chimerism was determined separately for each population. Nonviable cells were excluded by propidium iodide (Thermo Fischer Scientific, Grand Island, N.Y.) staining.

In data set [6] the test system is Cynomolgus monkeys. Description: Renal allograft survival / rejection after CKBMT without maintenance immunosuppression. Type of data set: in vivo. The note with it: per animal. How it is done: To evaluate whether Bcl-2 inhibitor (ABT-199) can promote engraftment of hematopoietic stem cells with reduced myelosuppressive therapy, monkeys were treated with various modified regimens with ABT-199 and compared with standard regimen without ABT-199. The basic conditioning regimen consisted of low dose total body irradiation (TBI), thymic irradiation (TI, 7 Gy) and peri-transplant ATG administration. […] In Groups C-E, 10 mg/kg of ABT-199 was administered for 11 days (day −4 to day 6). Animals were divided into five groups according to the treatments (Table 1).
as §2
Combined kidney and bone marrow transplantation (CKBMT): All recipients were conditioned with total body irradiation (TBI) (1.5 Gy on day −5, relative to the day of CKBMT), local thymic irradiation (TI) (7 Gy on day −1) and equine-derived anti-thymocyte globulin (hATG) (Atgam; Pharmacia and Upjohn, Kalamazoo, Mich.; 50 mg/kg/day i.v. on days −2, −1 and 0). […] Cyclosporine A (CyA, Novartis, Basel, Switzerland) was administered intramuscular (IM) on days 0-27 post DBMT, after which no immunosuppression was administered (FIG. 6).
Kidney transplantation (KTx): Monkeys underwent heterotopic KTx and nephrectomy as previously described (Cosimi, A. B., et al. 1990, Surgery 108, 406-413.).
as §1

Where [7] appears, read: Example 2 Group D: ABT-199 +, TBI 0 Gy, TI 7 Gy.
Setting [8] is: Example 2 Group E: ABT-199 +, TBI 1.5 Gy, TI 0 Gy.
Where [9] appears, read: Example 3 Group E: venetoclax +, TBI 1.5 Gy, TI 7 Gy, CoB Belatacept.
Setting [10] is: Example 3 Group F: venetoclax +, TBI 1.5 Gy, TI 7 Gy, no CoB.
Where [11] appears, read: Example 3 Group G: venetoclax +, TBI 1.5 Gy, TI 0 Gy, CoB aCD154.
Where [12] appears, read: Example 3 Group H: venetoclax +, TBI 0 Gy, TI 7 Gy, CoB aCD154.

“And” between values parts separate entries of the source, which are not always exact repeats. Equal values may be shown once. “Also recorded” adds a separate entry of the source. Some results are limits rather than exact numbers.

Take `CN(C)CC[C@H](CSc1ccccc1)Nc1ccc(S(=O)(=O)NC(=O)c2ccc(N3CCN(Cc4ccccc4-c4ccc(Cl)cc4)CC3)cc2)cc1[N+](=O)[O-]` [ABT-737]: the “Selectivity among Bcl-2 family proteins” value in data set [1] is “inhibits Bcl-2, Bcl-xL and Bcl-w but not Mcl-1”.

For `Cc1c(-c2c(-c3ccc(F)o3)sc3ncnc(O[C@H](Cc4ccccc4OCc4ccnn4CC(F)(F)F)C(=O)O)c23)ccc(OCCN2CCN(C)CC2)c1Cl` [S63845], in data set [2], the “HSCs in BM, % of the pretreatment level” value was 51% and the “total colony forming units (CFU), % of pretreatment” value turned out to be 45%.

Turning to `CC1(C)CCC(c2ccc(Cl)cc2)=C(CN2CCN(c3ccc(C(=O)NS(=O)(=O)c4ccc(N[C@H](CCN5CCOCC5)CSc5ccccc5)c(S(=O)(=O)C(F)(F)F)c4)cc3)CC2)C1` [navitoclax], the “Bax expression in T cells, B cells and NK cells compared to pre Rx levels” value in data set [3] is “only observed with venetoclax but not with navitoclax”. Further, the “Platelet counts (thrombocytopenia)” value in data set [4] (10 mg/kg x 11, after treatment) is recorded as “prolonged thrombocytopenia”.

Turning to `CC1(C)CCC(CN2CCN(c3ccc(C(=O)NS(=O)(=O)c4ccc(NCC5CCOCC5)c([N+](=O)[O-])c4)c(Oc4cnc5[nH]ccc5c4)c3)CC2)=C(c2ccc(Cl)cc2)C1` [venetoclax], the Chimerism in the data set with Cynomolgus monkeys [5] (Example 2 Group C: ABT-199 10 mg/kg x 11 days (day -4 to 6), TBI 1.5 Gy, TI 7 Gy) is reported as 3/3; in the data set on Cynomolgus monkeys [5] (setting [7]), 0/2; in the data set on Cynomolgus monkeys [5] (setting [8]) it was 2/2; with Cynomolgus monkeys [5] (Example 3 Group D: venetoclax 10 mg/kg x 11 IM, TBI 1.5 Gy, TI 7 Gy, CoB aCD154), 5/5; in the data set on Cynomolgus monkeys [5] (setting [9]), 3/3; with Cynomolgus monkeys [5] (setting [10]), 0/2. The Chimerism is reported as 3/3 in the data set with Cynomolgus monkeys [5] (setting [11]) and 0/2 with Cynomolgus monkeys [5] (setting [12]). The “Graft survival” value in the data set with Cynomolgus monkeys [6] (Example 2 Group C: ABT-199 +, TBI 1.5 Gy, TI 7 Gy) is > 316 days and > 637 days and > 301 days and > 313 days and > 361 days and > 646 days; in the data set on Cynomolgus monkeys [6] (setting [7]), 142 days and 100 days; in the data set on Cynomolgus monkeys [6] (setting [8]), 163 days and 100 days and 97 days. The “Renal Allograft Survival (days)” value is “exceeding 1000 days” in the data set on Cynomolgus monkeys [6] (Example 3 Group D: venetoclax +, TBI 1.5 Gy, TI 7 Gy, CoB aCD154); > 1071 days and > 735 days and > 313 days with Cynomolgus monkeys [6] (Example 3 Group D: venetoclax +, TBI 1.5 Gy, TI 7 Gy, CoB aCD154, listed as Venetoclax); > 574 days and > 308 days in the data set with Cynomolgus monkeys [6] (setting [9]); > 574 days and > 308 days and 237 days in the data set on Cynomolgus monkeys [6] (Example 3 Group E: venetoclax +, TBI 1.5 Gy, TI 7 Gy, CoB Belatacept, listed as Venetoclax); 74 days and 127 days in the data set with Cynomolgus monkeys [6] (setting [10]); 97 days and 100 days and 163 days with Cynomolgus monkeys [6] (setting [11]). The “Renal Allograft Survival (days)” value with Cynomolgus monkeys [6] (setting [12]) was 120 days and 142 days. Also, the Pancytopenia / neutropenia entry in data set [4] (Example 2 Group C: ABT-199 +, TBI 1.5 Gy, TI 7 Gy, in contrast to Group A (TBI 3 Gy, no ABT-199)) is “without development of severe pancytopenia; also recorded: without neutropenia”. Also, the “White blood cell counts, platelet counts, HCT (leukopenia, thrombocytopenia, anemia)” value in data set [4] (Example 3 Group D: venetoclax, TBI 1.5 Gy) is listed as “no leukopenia, thrombocytopenia, or anemia; also recorded: stable”.
